Results on one compound are retold here after paper PMC6135396, “Repurposing antimalarial aminoquinolines and related compounds for treatment of retinal neovascularization” (PLoS ONE, 2018).

As a reminder, the IC50 is the point on the concentration scale where inhibition reaches its midpoint.

Like-named read-outs stand apart in the source and are kept apart here.

Data set [1] is described as follows: PAMPA permeability. It counts as in vitro ADME. On the technique in general: The PAMPA barrier holds no transporters, so it reflects passive diffusion.
Data set [2] can be described thus: Hepatic microsome stability, mouse. It counts as in vitro ADME. The note with it: liver microsomes, pH 7.4, single phase, read-out: Hepatic microsome stability T1/2. The method, then: Hepatic microsomes stability assays were performed as reported before. […] After preincubation at 37°C for 10 min, enzyme reactions were initiated by adding 120 μL of NADPH-generating system (2 mM NADP^+, 10 mM glucose-6-phosphate, 0.4 U/ml glucose-6-phosphate dehydrogenase, and 5 mM MgCl2) in the presence of 100 mM potassium phosphate buffer (pH 7.4). The final concentration of each model compound used was 1 μM. The microsomal concentrations used were 1.0 mg/mL. Compounds were incubated in microsomes for 0, 5, 15, 30 and 60 min. The reactions were stopped by the addition of ice cold ACN and the reaction mixtures were centrifuged at 10,000g for 10 min before the supernatant was removed for analysis.
Except for the primary assay in the HTS campaign, all experiments were repeated at least three times. Results are expressed as mean ± SEM. The Mann-Whitney test was used to determine statistical significance of the densitometry data of Western blot analysis. Unpaired two-tailed Student’s t-test was performed for the significance of the results of ELISA and in vitro tubule formation assay. ANOVA was used to determine the significance in vivo CNV models using the Tukey post-hoc test for multiple comparisons. […] T1/2 was calculated using the best fit curve resulting from non-linear (human) or linear (mouse and rat) regression analyses using Prism 7.
(In general: Liver microsomes are a subcellular fraction often used to study metabolism.)

In data set [3] the test system is parental CHO-K1 cells. The data set is described as follows: Parental cAMP counter assay (cells lacking APJ). It counts as cell-based. The settings on record: Cricetulus griseus. The method, then: To identify small-molecule antagonists of the apelin receptor (APJ) we interrogated the SBP compound file of ~425,000 compounds using CHO-k1-AGTRL1 cells overexpressing human APJ and a competitive immunoassay of intracellular cAMP [59]. The compound file was screened at a concentration of 10 μM. For all 333 plates assayed, the average Z-factor = 0.68 and the average S/B = 8.2, indicating a robust assay performance. […] There were 2550 compounds that met this criterion, representing a hit rate of ~0.6%. […] Included in this hit set was a series of aminoquinolines, exemplified by compound 1 (Fig 1B). […] As part of an initial hit-validation strategy, these compounds and three other commercially available analogs were purchased for further testing. The purity and identify of all compounds were confirmed by NMR and LC-MS, and they were subsequently retested in a battery of cell-based assays of APJ function and counter screens. […] (Fig 1D).
PathHunter™ GPCR Arrestin and cAMP Hunter™ cell lines (DiscoveRx Corp., Fremont, CA) were used to assay G-protein-dependent signaling and β-arrestin recruitment to APJ. CHO-K1 cells stably expressing APJ (CHO-K1-APJ) or AT1 (CHO-K1-AT1) with β-arrestin/β-galactosidase enzyme fragment complementation constructs were maintained in HAM's F-12 medium (Hyclone, Logan, UT) supplemented with 10% FBS, 1X Penicillin-Streptomycin-Glutamine (Invitrogen; Carlsbad, CA), 300 μg/ml hygromycin (EMD Biosciences, San Diego, CA), and 800 μg/ml Geneticin (Cellgro, Manassas, VA). Primary Human Retinal Microvascular Endothelial Cells (HRECs) were purchased from Cell Systems (Kirkland, WA) and maintained in Complete Classic Medium with CultureBoost-R™ (Cell Systems). Parent CHO-K1 cells were obtained from ATCC and maintained in HAM’s F-12 medium supplemented with 10% FBS, and1X Penicillin-Streptomycin-Glutamine (Invitrogen; Carlsbad, CA). All cells were incubated at 37°C (5% CO2, 95% relative humidity) and maintained at less than 70% to 80% confluence (approximately 75,000 cells/cm^2). Cell heterologously expressing APJ or AT1 were not used after 10 passages. HRECs were not used in any experiments after five passages.
All reagents unless otherwise specified are components of the cAMP HitHunter (DiscoveRx) kit. Ligand Buffer + 60 μM Forskolin (Cayman Chemical, Ann Arbor, MI) was made fresh on the day of the experiment and used for the dilution of positive and negative controls as well as all peptides. CHO-K1-APJ cells were dispensed into a 1536-well tissue culture microplate (Corning, Corning, NY) using a Multidrop at a seeding density of 1,000 cells/well and returned to the incubator. The next day, the cell culture media was removed and replaced with 15 μl/well of assay buffer (1X HBSS, 10 mM HEPES) containing anti-cAMP antibody (DiscoveRx). […] Plates were incubated at room temperature in the dark for 3 hours prior to chemiluminescence detection on an EnVision (Perkin Elmer) using a counting time of 1 s/well.

A short description of data set [4]: Plasma-protein binding, mouse. It counts as in vitro ADME.
Data set [5] in a line: Plasma-protein binding, rat. Type of data set: in vitro ADME.
Data set [6] has as its target T1, APJ (Homo sapiens, UniProt P35414).
T1 sequence (P35414 1-380): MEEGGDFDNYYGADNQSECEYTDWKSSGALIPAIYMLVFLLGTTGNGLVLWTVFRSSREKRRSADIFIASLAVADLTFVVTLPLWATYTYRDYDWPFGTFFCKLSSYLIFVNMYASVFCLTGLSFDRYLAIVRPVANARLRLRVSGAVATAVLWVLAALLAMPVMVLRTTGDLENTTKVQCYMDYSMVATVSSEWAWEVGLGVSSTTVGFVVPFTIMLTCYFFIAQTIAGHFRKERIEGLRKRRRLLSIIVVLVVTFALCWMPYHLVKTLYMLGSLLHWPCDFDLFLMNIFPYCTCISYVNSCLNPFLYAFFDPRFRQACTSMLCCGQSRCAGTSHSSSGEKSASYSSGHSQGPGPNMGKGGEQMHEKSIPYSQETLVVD
The data set is described as follows: Radioligand competition binding assay, [125I]-Glp65, Nle75, Tyr77-Ap13 on APJ membranes. The note with it: tested as high as 100 μM. Details: purchased Perkin Elmer. On the technique in general: Loss of bound radioactivity is the signal in a displacement assay; it reports binding, not function.
Protocol: Soaking buffer (300 μl/well) was added to a 96-well GF/C filter plate (MultiScreen Harvest plate, Millipore) and left to equilibrate at room temperature for 3 h. […] Following incubation, contents were transferred from the OptiPlate to the pre-wet GF/C filter plate, and immediately underwent vacuum filtration. The filter plate was washed five times with 200 μl ice cold wash buffer and left at room temperature overnight to equilibrate. The next day, 20 μl scintillation liquid (Microscint 20, Perkin Elmer) was added and radioactivity quantified using a TopCount NXT (Perkin Elmer) microplate scintillation and luminescence counter. […] The Cheng & Prusoff equation was used to convert IC50 estimates to equilibrium dissociation constants [89].

Data set [7] can be described thus: Plasma stability, mouse. Type of data set: in vitro ADME.
Data set [8] can be described thus: Cytotoxicity, ATP-Lite, Fa2N-4 immortalized human hepatocytes. It counts as cell-based. The settings on record: Fa2N-4 immortalized human hepatocytes. The method, then: Fa2N-4 immortalized human hepatocytes (Xenotech) or HREC cells were grown to subconfluency in wells of a 96-well plate and exposed to different concentrations of compounds for 24 h after which the cells were washed and the media and compounds replaced. The cells were returned to the incubator for another 24 h. The extent of cell death (cell lysis) was determined by ATP-Lite reagent (Perkin-Elmer).

`CCN(CC)Cc1cc(Nc2ccnc3cc(Cl)ccc23)ccc1O` [AQ, amodiaquine]: the Papp in data set [1] (Donor pH 5.0, Acceptor pH 7.4, read-out: PAMPA permeability Pe) amounted to 3 ×10⁻⁶ cm/s; in data set [1] (Donor pH 6.2, Acceptor pH 7.4, read-out: PAMPA permeability Pe) it was 9.6 ×10⁻⁶ cm/s; in data set [1] (pH 7.4, Donor pH 7.4, Acceptor pH 7.4, read-out: PAMPA permeability Pe), 54 ×10⁻⁶ cm/s. Besides, in data set [2], the half-life at 1 μM is 39.8 min. For the same compound, in data set [3], the IC50 was above 99 µM. Also, the Plasma-protein binding is reported as 81.9 % bound in data set [4] (1 μM), 70.8 % bound in data set [4] (10 μM), 75.3 % bound in data set [5] (1 μM) and 76.8 % bound in data set [5] (10 μM). Further, the “Displacement of [125I]-Glp65, Nle75, Tyr7-Ap13 binding” value in data set [6] is reported as “did not displace”. Further, the Plasma stability in data set [7] was 36.1 % remaining at 3 hrs. Besides, the IC50 at 48 h in data set [8] (ATP-lite assay, Fa2-N4 cells) is above 50 µM. Also, in data set [8] (Fa2N-4 cells, read-out: Cytotoxicity LC50), the CC50 at 48 h is above 50 µM.
